Laboratory results: patent US9376420B2 (YUHAN CORPORATION, priority 2012, dated 2016)

Target: T1, human LXRβ (Homo sapiens, UniProt P55055)
T1 construct: expressed in transfected cells; host or cells: HEK293 cells (ATCC CRL-1573), transient transfection with pFA-hLXRβ/GAL4 and pUAS
T1 sequence (P55055 222-460 limits assumed): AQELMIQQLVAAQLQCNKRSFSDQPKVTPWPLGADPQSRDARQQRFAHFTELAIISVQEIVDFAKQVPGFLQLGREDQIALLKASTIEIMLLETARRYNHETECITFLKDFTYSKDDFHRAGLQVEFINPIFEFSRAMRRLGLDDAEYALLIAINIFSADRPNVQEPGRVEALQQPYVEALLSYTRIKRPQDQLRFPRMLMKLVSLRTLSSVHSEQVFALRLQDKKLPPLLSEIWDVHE
Assay: Assay for Transcriptional Activity of LXRβ (GAL4-hLXRβ LBD luciferase reporter, transient transfection)
Format: cell-based
Details: HEK293 cells transfected with pFA-hLXRβ/GAL4 and pUAS, 24 hours; for Emax: fold value in comparison with the control (DMSO-treated group); for EC50: increase of transcriptional activity of LXRβ, average of three independent tests
Method in brief: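 HEK293 cells transiently co-transfected with GAL4-hLXRβ LBD and 5×GAL4-UAS luciferase reporter, treated 24 h at 37 °C with compounds over 9 points (0.01–50 μM, half-log). Luminescence read after lysis; EC50 from four-parameter fit, mean of three independent tests, with a known LXR agonist as positive control.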

SMILES: CCCS(=O)(=O)N1CC=C(c2ccc(C3CC(C(O)(C(F)(F)F)C(F)(F)F)=NN3c3ccccc3Cl)cc2)CC1 (stereo not shown) [Example 300, 1-(2-chloro-phenyl)-5-{4-[1-(propane-1-sulfonyl)-1,2,3,6-tetrahydropyridin-4-yl]-phenyl}-3-[di-(trifluoromethyl)-hydroxy-methyl]-4,5-dihydro-1H-pyrazole]
- Emax: 53 fold
- EC50: 0.635 µM

SMILES: CC(C)S(=O)(=O)N1CC=C(c2ccc(C3CC(C(O)(C(F)(F)F)C(F)(F)F)=NN3c3ccccc3Cl)cc2)CC1 (stereo not shown) [Example 301, 1-(2-chloro-phenyl)-5-{4-[1-(propane-2-sulfonyl)-1,2,3,6-tetrahydropyridin-4-yl]-phenyl}-3-[di-(trifluoromethyl)-hydroxy-methyl]-4,5-dihydro-1H-pyrazole]
- Emax: 73 fold
- EC50: 0.479 µM

SMILES: CC(C)CS(=O)(=O)N1CC=C(c2ccc(C3CC(C(O)(C(F)(F)F)C(F)(F)F)=NN3c3ccccc3Cl)cc2)CC1 (stereo not shown) [Example 302, 1-(2-chloro-phenyl)-5-{4-[1-(2-methyl-propane-1-sulfonyl)-1,2,3,6-tetrahydropyridin-4-yl]-phenyl}-3-[di-(trifluoromethyl)-hydroxy-methyl]-4,5-dihydro-1H-pyrazole]
- Emax: 45 fold
- EC50: 0.849 µM

SMILES: O=S(=O)(C1CC1)N1CC=C(c2ccc(C3CC(C(O)(C(F)(F)F)C(F)(F)F)=NN3c3ccccc3Cl)cc2)CC1 (stereo not shown) [Example 304, 1-(2-chloro-phenyl)-5-[4-(1-cyclopropanesulfonyl-1,2,3,6-tetrahydropyridin-4-yl)-phenyl]-3-[di-(trifluoromethyl)-hydroxy-methyl]-4,5-dihydro-1H-pyrazole]
- Emax: 104 fold
- EC50: 0.521 µM

SMILES: CN(C)S(=O)(=O)N1CC=C(c2ccc(C3CC(C(O)(C(F)(F)F)C(F)(F)F)=NN3c3ccccc3Cl)cc2)CC1 (stereo not shown) [Example 305, 1-(2-chloro-phenyl)-5-{4-[1-dimethylsulfamoyl-1,2,3,6-tetrahydropyridin-4-yl]-phenyl}-3-[di-(trifluoromethyl)-hydroxy-methyl]-4,5-dihydro-1H-pyrazole]
- Emax: 66 fold
- EC50: 0.304 µM

SMILES: O=S(=O)(C1CCCC1)N1CC=C(c2ccc(C3CC(C(O)(C(F)(F)F)C(F)(F)F)=NN3c3ccccc3Cl)cc2)CC1 (stereo not shown) [Example 306, 1-(2-chloro-phenyl)-5-[4-(1-cyclopentanesulfonyl-1,2,3,6-tetrahydropyridin-4-yl)-phenyl]-3-[di-(trifluoromethyl)-hydroxy-methyl]-4,5-dihydro-1H-pyrazole]
- Emax: 59 fold
- EC50: 1.25 µM

SMILES: O=S(=O)(C1CCCCC1)N1CC=C(c2ccc(C3CC(C(O)(C(F)(F)F)C(F)(F)F)=NN3c3ccccc3Cl)cc2)CC1 (stereo not shown) [Example 307, 1-(2-chloro-phenyl)-5-[4-(1-cyclohexanesulfonyl-1,2,3,6-tetrahydropyridin-4-yl)-phenyl]-3-[di-(trifluoromethyl)-hydroxy-methyl]-4,5-dihydro-1H-pyrazole]
- Emax: 52 fold
- EC50: 5.47 µM

SMILES: O=S(=O)(N1CC=C(c2ccc(C3CC(C(O)(C(F)(F)F)C(F)(F)F)=NN3c3ccccc3Cl)cc2)CC1)N1CCCC1 (stereo not shown) [Example 308, 1-(2-chloro-phenyl)-5-{4-[1-(pyrrolidine-1-sulfonyl)-1,2,3,6-tetrahydropyridin-4-yl]-phenyl}-3-[di-(trifluoromethyl)-hydroxy-methyl]-4,5-dihydro-1H-pyrazole]
- Emax: 36 fold
- EC50: 0.495 µM

SMILES: CC(=O)Nc1cccc(-c2ccc(C3CC(C(O)(C(F)(F)F)C(F)(F)F)=NN3c3ccccc3Cl)cc2)c1 (stereo not shown) [Example 309, 5-(3′-acetaminobiphenyl-4-yl)-1-(2-chloro-phenyl)-3-[di-(trifluoromethyl)-hydroxy-methyl]-4,5-dihydro-1H-pyrazole]
- Emax: 84 fold
- EC50: 1.94 µM

SMILES: CS(=O)(=O)Nc1cccc(-c2ccc(C3CC(C(O)(C(F)(F)F)C(F)(F)F)=NN3c3ccccc3Cl)cc2)c1 (stereo not shown) [Example 310, 5-(3′-methanesulfonyl-aminobiphenyl-4-yl)-1-(2-chloro-phenyl)-3-[di-(trifluoromethyl)-hydroxy-methyl]-4,5-dihydro-1H-pyrazole]
- Emax: 78 fold
- EC50: 1.15 µM

SMILES: CS(=O)(=O)N1CCN(c2ccc(C3CC(C(O)(C(F)(F)F)C(F)(F)F)=NN3c3ccccc3Cl)cc2)CC1 (stereo not shown) [Example 312, 1-(2-chloro-phenyl)-5-[4-(4-methanesulfonyl-piperazin-1-yl)-phenyl]-3-[di-(trifluoromethyl)-hydroxy-methyl]-4,5-dihydro-1H-pyrazole]
- Emax: 46 fold
- EC50: 2.54 µM

SMILES: CCS(=O)(=O)N1CCN(c2ccc(C3CC(C(O)(C(F)(F)F)C(F)(F)F)=NN3c3ccccc3Cl)cc2)CC1 (stereo not shown) [Example 313, 1-(2-chloro-phenyl)-5-[4-(4-ethanesulfonyl-piperazin-1-yl)-phenyl]-3-[di-(trifluoromethyl)-hydroxy-methyl]-4,5-dihydro-1H-pyrazole]
- Emax: 56 fold
- EC50: 1.12 µM

SMILES: CC(C)S(=O)(=O)N1CCN(c2ccc(C3CC(C(O)(C(F)(F)F)C(F)(F)F)=NN3c3ccccc3Cl)cc2)CC1 (stereo not shown) [Example 314, 1-(2-chloro-phenyl)-5-[4-(4-isopropylsulfonyl-piperazin-1-yl)-phenyl]-3-[di-(trifluoromethyl)-hydroxy-methyl]-4,5-dihydro-1H-pyrazole]
- Emax: 59 fold
- EC50: 0.883 µM

SMILES: O=S(=O)(C1CC1)N1CCN(c2ccc(C3CC(C(O)(C(F)(F)F)C(F)(F)F)=NN3c3ccccc3Cl)cc2)CC1 (stereo not shown) [Example 315, 1-(2-chloro-phenyl)-5-[4-(4-cyclopropanesulfonyl-piperazin-1-yl)-phenyl]-3-[di-(trifluoromethyl)-hydroxy-methyl]-4,5-dihydro-1H-pyrazole]
- Emax: 59 fold
- EC50: 1.49 µM

SMILES: CN(C)S(=O)(=O)N1CCN(c2ccc(C3CC(C(O)(C(F)(F)F)C(F)(F)F)=NN3c3ccccc3Cl)cc2)CC1 (stereo not shown) [Example 316, 1-(2-chloro-phenyl)-5-[4-(4-dimethylsulfamoyl-piperazin-1-yl)-phenyl]-3-[di-(trifluoromethyl)-hydroxy-methyl]-4,5-dihydro-1H-pyrazole]
- Emax: 43 fold
- EC50: 0.706 µM

SMILES: O=S(=O)(N1CCCC1)N1CCN(c2ccc(C3CC(C(O)(C(F)(F)F)C(F)(F)F)=NN3c3ccccc3Cl)cc2)CC1 (stereo not shown) [Example 319, 1-(2-chloro-phenyl)-5-{4-[4-(pyrrolidine-1-sulfonyl)-piperazin-1-yl]-phenyl}-3-[di-(trifluoromethyl)-hydroxy-methyl]-4,5-dihydro-1H-pyrazole]
- Emax: 39 fold
- EC50: 1.83 µM

SMILES: CC(C)(O)C(=O)N1CCN(c2ccc(C3CC(C(O)(C(F)(F)F)C(F)(F)F)=NN3c3ccccc3Cl)cc2)CC1 (stereo not shown) [Example 320, 1-(2-chloro-phenyl)-5-{4-[4-(2-hydroxy-2-methyl-propionyl)-piperazin-1-yl]-phenyl}-3-(di-(trifluoromethyl)-hydroxy-methyl]-4,5-dihydro-1H-pyrazole]
- Emax: 17 fold
- EC50: 1.66 µM

SMILES: CS(=O)(=O)N1CCCN(c2ccc(C3CC(C(O)(C(F)(F)F)C(F)(F)F)=NN3c3ccccc3Cl)cc2)CC1 (stereo not shown) [Example 322, 1-(2-chloro-phenyl)-5-[4-(4-methanesulfonyl-homopiperazin-1-yl)-phenyl]-3-[di-(trifluoromethyl)-hydroxy-methyl]-4,5-dihydro-1H-pyrazole]
- Emax: 64 fold
- EC50: 0.778 µM

SMILES: CCS(=O)(=O)N1CCCN(c2ccc(C3CC(C(O)(C(F)(F)F)C(F)(F)F)=NN3c3ccccc3Cl)cc2)CC1 (stereo not shown) [Example 323, 1-(2-chloro-phenyl)-5-[4-(4-ethanesulfonyl-homopiperazin-1-yl)-phenyl]-3-[di-(trifluoromethyl)-hydroxy-methyl]-4,5-dihydro-1H-pyrazole]
- Emax: 54 fold
- EC50: 0.344 µM

SMILES: CC(C)S(=O)(=O)N1CCCN(c2ccc(C3CC(C(O)(C(F)(F)F)C(F)(F)F)=NN3c3ccccc3Cl)cc2)CC1 (stereo not shown) [Example 324, 1-(2-chloro-phenyl)-5-[4-(4-isopropylsulfonyl-homopiperazin-1-yl)-phenyl]-3-[di-(trifluoromethyl)-hydroxy-methyl]-4,5-dihydro-1H-pyrazole]
- Emax: 37 fold
- EC50: 3.75 µM

SMILES: O=S(=O)(C1CC1)N1CCCN(c2ccc(C3CC(C(O)(C(F)(F)F)C(F)(F)F)=NN3c3ccccc3Cl)cc2)CC1 (stereo not shown) [Example 325, 1-(2-chloro-phenyl)-5-[4-(4-cyclopropanesulfonyl-homopiperazin-1-yl)-phenyl]-3-[di-(trifluoromethyl)-hydroxy-methyl]-4,5-dihydro-1H-pyrazole]
- Emax: 53 fold
- EC50: 0.8 µM

SMILES: CN(C)S(=O)(=O)N1CCCN(c2ccc(C3CC(C(O)(C(F)(F)F)C(F)(F)F)=NN3c3ccccc3Cl)cc2)CC1 (stereo not shown) [Example 326, 1-(2-chloro-phenyl)-5-[4-(4-dimethylsulfamoyl-homopiperazin-1-yl)-phenyl]-3-[di-(trifluoromethyl)-hydroxy-methyl]-4,5-dihydro-1H-pyrazole]
- Emax: 51 fold
- EC50: 0.55 µM

SMILES: O=S1(=O)CCN(c2ccc(C3CC(C(O)(C(F)(F)F)C(F)(F)F)=NN3c3ccccc3Cl)cc2)CC1 (stereo not shown) [Example 329, 1-(2-chloro-phenyl)-5-[4-(1,1-dioxo-thiomorpholin-4-yl)-phenyl]-3-[di-(trifluoromethyl)-hydroxy-methyl]-4,5-dihydro-1H-pyrazole]
- Emax: 39 fold
- EC50: 2.03 µM
